What all share (test): inhibition of tumour cell growth, NCI panel, 48 h
In assay [1] the test system is EKVX.
In assay [2] the test system is 786-0.
Assay [3] relates to SF-539.
The test system of assay [4] is HCT-116.
Assay [5] deals with SF-295.
In assay [6] the test system is LOX IMVI.
The subject of assay [7] is SK-MEL-5.
Assay [8] has as its system SN12C.
The test system of assay [9] is OVCAR-5.
The test system of assay [10] is SK-MEL-28.
Assay [11] has as its system A549.
The subject of assay [12] is HCC 2998.
Assay [13] relates to OVCAR-8.
The subject of assay [14] is Malme-3M.
Assay [15] deals with NCI-H23.
Assay [16] concerns TK-10.
The subject of assay [17] is HT-29.
Assay [18] has as its system NCI-H226.
The subject of assay [19] is RXF 393.

SMILES strings stand for the structures.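 These data come from cells grown in 96-well plates and exposed to compound for 48 hours at five concentrations. At the GI50, growth is halved.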 Active and inactive are the calls of the source. Cut-off read from the data, not from the text of the source: active = GI50 up to about 1.1 µM and inactive = higher.

`CCOCN1COCN(C)C1=O`: the GI50 in [1], in assay [2], in assay [3], in assay [4], in assay [5] and in assay [6] was > 100 µM (inactive) throughout. Besides, the GI50 in assay [7], in [8], in assay [9], in assay [10], in [11] and in assay [12] was > 100 µM (inactive) throughout. In addition, the GI50 in assay [13], in assay [14], in assay [15], in assay [16], in assay [17] and in [18] was > 100 µM (inactive) in each case.

With `CCN(CC)/[N+]([O-])=N/OCC(C)O` (stereo unspecified), the GI50 in assay [1], in [19], in assay [2], in assay [3], in [4] and in [5] was > 100 µM (inactive) in each case. The GI50 in assay [6], in [7], in assay [8], in assay [9], in [10] and in [11] was > 100 µM (inactive) in each case. Moreover, the GI50 in assay [12], in assay [13], in assay [15], in assay [16], in [17] and in assay [18] was > 100 µM (inactive) each time.

On to `Oc1ccc(I)c2cccnc12`, for which the GI50 in assay [1] was 9.27 µM (inactive); in [19], 6.82 µM (inactive); in assay [2] it was 4.88 µM (inactive); in assay [3], 12.5 µM (inactive); in [4], 4.71 µM (inactive); in assay [5] it was 3.48 µM (inactive). Further, the GI50 in [6] is 8.26 µM (inactive); in assay [8] it was 13.4 µM (inactive); in assay [9], 52.5 µM (inactive); in assay [10], 40.1 µM (inactive); in assay [11], 5.52 µM (inactive); in [13] it was 3.66 µM (inactive). The GI50 in assay [14] was 7.55 µM (inactive); in [15], 8.38 µM (inactive); in assay [16], 37.2 µM (inactive); in [17], 38.2 µM (inactive); in [18], 15.6 µM (inactive).

Consider `CC1CCC[P+](Cc2ccccc2)(c2ccccc2)CC1` (stereo unspecified), for which the GI50 in [1] is > 100 µM (inactive); in assay [19] it was 23.1 µM (inactive); in assay [2], > 100 µM (inactive); in assay [3] it was 69.5 µM (inactive); in assay [6] it was 32 µM (inactive); in assay [7], 14.5 µM (inactive). For the same compound, the GI50 in assay [8] is > 100 µM (inactive); in [9], > 100 µM (inactive); in assay [10] it was 41.2 µM (inactive); in assay [11], > 100 µM (inactive); in assay [12] it was 29.1 µM (inactive); in [13], 59.8 µM (inactive). The GI50 in assay [14] was 4.99 µM (inactive); in assay [15], 27.2 µM (inactive); in assay [16], > 100 µM (inactive).

Consider `CC(/C=C/c1ccccc1)=N\N=C(C)\C=C\c1ccccc1`, for which the GI50 in assay [1], in [2], in assay [4], in assay [5], in assay [6] and in assay [7] was > 100 µM (inactive) in each case. The GI50 in [8], in assay [9], in [10], in [11], in assay [12] and in [13] was > 100 µM (inactive) each time. Besides, the GI50 in assay [14], in assay [15], in [16], in [17] and in [18] was > 100 µM (inactive) each time.

In the case of `CCC1C2C=CC(CC2)N1S(=O)(=O)c1ccc(C)cc1` (stereo unspecified), the GI50 is 27.8 µM (inactive) in [1]; 31.9 µM (inactive) in assay [2]; 20.7 µM (inactive) in [3]; 30.9 µM (inactive) in [4]; 29.2 µM (inactive) in [5]; 15.8 µM (inactive) in [6]. For the same compound, the GI50 in assay [7] was 18.4 µM (inactive); in assay [8], 16.4 µM (inactive); in assay [9], 22.3 µM (inactive); in assay [11], 28.2 µM (inactive); in assay [13], > 10 µM (inactive); in assay [14], 21.4 µM (inactive). The GI50 in [17] was 24.4 µM (inactive); in assay [18], 0.283 µM (active).

For `O=C(N/C(=C\c1cc(Cl)ccc1Cl)c1nc2ccccc2[nH]1)c1ccccc1`, the GI50 in assay [1] is 28.5 µM (inactive); in assay [19], 21.3 µM (inactive); in assay [2], 18 µM (inactive); in assay [3] it was 39.3 µM (inactive); in [5], 24.5 µM (inactive); in assay [7] it was 21.7 µM (inactive). Besides, the GI50 in [8] is 32.1 µM (inactive); in assay [9], 52.2 µM (inactive); in assay [10], 45.3 µM (inactive); in [11], 35.1 µM (inactive); in assay [12], 17.9 µM (inactive); in [13], 19.2 µM (inactive). In addition, the GI50 was 19.7 µM (inactive) in [14], 23.8 µM (inactive) in assay [15], 93.3 µM (inactive) in assay [16] and 16.3 µM (inactive) in assay [17].

Consider `COc1cc(OC)c(OC)cc1/C=N/NC(=O)N/N=C/c1cc(OC)c(OC)cc1OC`, for which the GI50 in assay [1] is > 100 µM (inactive); in assay [2] it was > 100 µM (inactive); in assay [3], 33.6 µM (inactive); in assay [4], > 100 µM (inactive); in assay [5] it was > 100 µM (inactive); in assay [6], > 100 µM (inactive). The GI50 in [7] was > 100 µM (inactive); in assay [8] it was > 100 µM (inactive); in [9] it was > 100 µM (inactive); in assay [10], > 100 µM (inactive); in [11], > 100 µM (inactive); in assay [13], 91 µM (inactive). Moreover, the GI50 in assay [14], in assay [15], in assay [16], in assay [17] and in [18] was > 100 µM (inactive) each time.

With `COc1cc(OC)c(OC)cc1/C=C/c1cc[n+](C)c2ccccc12`, the GI50 in assay [1] was 50.2 µM (inactive); in assay [19] it was 53.1 µM (inactive); in [2] it was 25.2 µM (inactive); in [4], 27.8 µM (inactive); in [5] it was 15.3 µM (inactive); in assay [7], 11 µM (inactive). Besides, the GI50 in assay [9] is > 100 µM (inactive); in [10], > 100 µM (inactive); in [11] it was 25.9 µM (inactive); in [12], 52.6 µM (inactive); in assay [13], 9.93 µM (inactive); in [14], > 100 µM (inactive). The results for the GI50 in [15], in assay [16] and in [17] were 12.1 µM (inactive), > 100 µM (inactive) and 30.5 µM (inactive), respectively.

Consider `COC1OC(CO)C(O)C1N` (stereo unspecified), for which the GI50 in assay [1], in assay [19], in assay [2], in assay [3], in assay [4] and in assay [5] was > 100 µM (inactive) in each case. Also, the GI50 in assay [6], in [7], in assay [8], in assay [9], in assay [10] and in assay [11] was > 100 µM (inactive) each time. Also, the GI50 in assay [13], in [14], in assay [15], in assay [16], in [17] and in assay [18] was > 100 µM (inactive) throughout.

For the compound `CN1CCC(O)C(CNC23CC4CC(CC(C4)C2)C3)C1` (stereo unspecified), the GI50 is > 100 µM (inactive) in assay [1]; 62.2 µM (inactive) in [19]; > 100 µM (inactive) in assay [2]; > 100 µM (inactive) in assay [3]; > 100 µM (inactive) in assay [5]; > 100 µM (inactive) in assay [6]. Further, the GI50 in [7] is > 100 µM (inactive); in assay [8], > 100 µM (inactive); in assay [9], > 100 µM (inactive); in assay [10], > 10 µM (inactive); in assay [11], > 100 µM (inactive); in assay [13], > 100 µM (inactive). The GI50 in assay [14], in [15], in [16], in assay [17] and in [18] was > 100 µM (inactive) in each case.

On to `C[C@@]12CCCc3coc(c31)C(=O)c1cc3c(cc12)C(=O)C=CC3=O` [XESTOQUINONE], for which the GI50 in assay [1] is 18.8 µM (inactive); in assay [19] it was 14.9 µM (inactive); in assay [2] it was 17 µM (inactive); in assay [3] it was 15.7 µM (inactive); in [6], 15.8 µM (inactive); in assay [7], 16.7 µM (inactive). The GI50 in assay [8] was 20.3 µM (inactive); in assay [9], 22 µM (inactive); in [11], 23.7 µM (inactive); in assay [12] it was 28.1 µM (inactive); in assay [13] it was 15.5 µM (inactive); in assay [15], 16 µM (inactive). Besides, the values for the GI50 in assay [16] and in assay [17] were 21.2 µM (inactive) and 22.3 µM (inactive), respectively.

These data come from ChEMBL document CHEMBL1201862, “PubChem BioAssay data set” (2004).
